From patent publication US8592466B2, “Methods for treating conditions caused by higher-than-normal dopaminergic activity in basal ganglia” (Neuropill, Inc., priority 2008, dated 2013)
Like-named read-outs stand apart in the source and are kept apart here.

Test: RPR 102681 plasma concentration by LC/MS/MS
Type: in vivo, humans
Conditions: for concentration at 95 min / concentration at 215 min: human, plasma, read-out: mean plasma concentration (3-day average); for concentration at 95 min: 95 minutes post dose; for concentration at 215 min: 215 minutes post dose
Procedure: […] Pharmacokinetics (peak and trough levels) of RPR 102681 during treatment at a dose of 200 mg (day 13), 400 mg (day 20) and 800 mg (day 27) b.i.d. were determined.
The plasma concentration of RPR 102681 was determined with a validated liquid chromatography assay with mass spectrometric detection (LC/MS/MS) at the Department of Biopharmaceutical Sciences, University of California, San Francisco, Calif.
The sample plasma specimens for determining plasma concentration (354 RPR 102681 plasma specimens and 109 Prolactin plasma specimens) were frozen and packed in dry ice upon receipt by the Analytical Division/Drug Studies Unit at South San Francisco, Calif. These samples were kept frozen at approximately −20° C. until analyzed.
Human plasma samples (0.100 mL) were analyzed for RPR 102681 with an LC/MS/MS procedure utilizing a PE Sciex III system equipped with a BDS Hypersil C18 column (4.6×15 mm, 5 μm particle size), a mobile system consisting of acetonitrile:water:trifluoroacetic acid (70:30:0.06) (v/v) with 0.0006% (w/v) ammonium phosphate dibasic; mass spectrometric detection was accomplished with a sample inlet, heated nebulizer, positive ionization by Atmospheric Pressure Chemical Ionization (APCI) and mass scanning by Multiple Reaction Monitoring (MRM) analysis. Sample preparation consisted of precipitation of 0.100 mL of plasma with acetonitrile containing the internal standard (prednisolone acetate) prior to separation by LC/MS/MS. The linear range of the assay was 1.0 to 160 ng/mL, with a lower limit of quantitation of 1.0 ng/mL.
Standard curve and quality control (QC) samples were generated by spiking interference free human plasma samples with known amounts of RPR 102681 and internal standard (IS). These standard curve, assay, and QC samples were processed, then 40 μl aliquots were injected into the LC/MS/MS system for chromatographic separation and subsequent mass spectrometric detection. The peak area ratios of RPR 102681 to IS were calculated for each sample from the measured peak areas obtained by LC/MS/MS. Finally, spiked concentrations and RPR 102681 to IS peak area ratios of the standard curve samples were fit by 1/x weighted least squares linear regression to the equation for the best straight line (y=mx+b, where y=peak area ratio and x=RPR 102681 concentration), and drug concentration in assay sample were calculated by the equation from the RPR 102681 to IS peak area ratios obtained by LC/MS/MS.

**Q.** Which “mean plasma concentration at 2-3.5 hours relative to 8-11 hours” value (200 mg dose) does the source give for `CC(C(=O)O)c1cccc(NC(=O)NCC(=O)N2C(C(=O)OC(C)(C)C)CSC2c2ccccc2F)c1` [RPR 102681, (2S)-2-{3-[3-({[(2R,4R)-4-tert-Butoxycarbonyl-2-(2-fluorophenyl)]-3-thiazolidinyl}carbonylmethyl)ureido]phenyl}propionic acid] here?
**A.** approximately 19 times

**Q.** What about the “mean plasma concentration at 2-3.5 hours relative to 8-11 hours” value (400 mg dose) of the same molecule?
**A.** ~15 times

**Q.** What about the “dose-proportionality of plasma concentration” value (400 mg to 800 mg dose range, 95 and 215 minutes post-dose) of the same molecule?
**A.** Severe deviation from dose-proportionality

**Q.** And the “mean plasma concentration at 2-3.5 hours relative to 8-11 hours” value (800 mg dose)?
**A.** ~8 times

**Q.** What about the “least-squares mean of dose-normalized concentration” value (95 minutes post-dose, day 13, 200 mg) of the same molecule?
**A.** 1.26 ng/mL

**Q.** What about the “least-squares mean of dose-normalized concentration” value (95 minutes post-dose, day 14, 200 mg) of the same molecule?
**A.** 1.12 ng/mL

**Q.** What about the “least-squares mean of dose-normalized concentration” value (95 minutes post-dose, day 15, 200 mg) of the same molecule?
**A.** 1.25 ng/mL

**Q.** What about the “least-squares mean of dose-normalized concentration” value (95 minutes post-dose, day 20, 400 mg) of the same molecule?
**A.** 1.36 ng/mL

**Q.** And the “least-squares mean of dose-normalized concentration” value (95 minutes post-dose, day 21, 400 mg)?
**A.** 0.87 ng/mL

**Q.** And the “least-squares mean of dose-normalized concentration” value (95 minutes post-dose, day 22, 400 mg)?
**A.** 1.05 ng/mL

**Q.** What about the “least-squares mean of dose-normalized concentration” value (95 minutes post-dose, day 27, 800 m) of the same molecule?
**A.** 0.78 ng/mL

**Q.** And the “least-squares mean of dose-normalized concentration” value (95 minutes post-dose, day 28, 800 m)?
**A.** 0.58 ng/mL

**Q.** And the “least-squares mean of dose-normalized concentration” value (95 minutes post-dose, day 29, 800 m)?
**A.** 0.43 ng/mL

**Q.** And the “least-squares mean of dose-normalized concentration” value (215 minutes after dose, day 13, 200 mg)?
**A.** 0.70 ng/mL

**Q.** And the “least-squares mean of dose-normalized concentration” value (215 minutes after dose, day 14, 200 mg)?
**A.** 0.78 ng/mL

**Q.** And the “least-squares mean of dose-normalized concentration” value (215 minutes after dose, day 15, 200 mg)?
**A.** 0.62 ng/mL

**Q.** And the “least-squares mean of dose-normalized concentration” value (215 minutes after dose, day 20, 400 mg)?
**A.** 0.58 ng/mL

**Q.** What about the “least-squares mean of dose-normalized concentration” value (215 minutes after dose, day 21, 400 mg) of the same molecule?
**A.** 0.54 ng/mL

**Q.** What about the “least-squares mean of dose-normalized concentration” value (215 minutes after dose, day 22, 400 mg) of the same molecule?
**A.** 0.66 ng/mL

**Q.** And the “least-squares mean of dose-normalized concentration” value (215 minutes after dose, day 27, 800 mg)?
**A.** 0.42 ng/mL

**Q.** And the “least-squares mean of dose-normalized concentration” value (215 minutes after dose, day 28, 800 mg)?
**A.** 0.39 ng/mL

**Q.** And the “least-squares mean of dose-normalized concentration” value (215 minutes after dose, day 29, 800 mg)?
**A.** 0.33 ng/mL

**Q.** And the concentration at 95 min (200 mg b.i.d. oral)?
**A.** 0.242 µg/mL

**Q.** What about the concentration at 95 min (400 mg b.i.d. oral) of the same molecule?
**A.** 0.422 µg/mL

**Q.** What about the concentration at 95 min (800 mg b.i.d. oral) of the same molecule?
**A.** 0.441 µg/mL

**Q.** What about the concentration at 215 min (200 mg b.i.d. oral) of the same molecule?
**A.** 0.14 µg/mL

**Q.** And the concentration at 215 min (400 mg b.i.d. oral)?
**A.** 0.255 µg/mL

**Q.** And the concentration at 215 min (800 mg b.i.d. oral)?
**A.** 0.285 µg/mL
